Results: US11464250B2, “Natural compound sweetener and preparation method therefor” (HUNAN HUACHENG BIOTECH INC., priority 2017, dated 2022)

Tests used:
[1] = times that of saccharose, cited from earlier work
[2] = electronic tongue tasting, intelligent gustation analysis system TS-5000Z; settings: 1% (mass concentration) saccharose as standard; FIG. 1-FIG. 3
From the text: Method II: an intelligent gustation analysis system TS-5000Z, namely an electronic tongue is adopted to perform tasting, an artificial fat membrane sensor technology, of which an operating principle is similar to that of human tongue gustation cells, is employed, basic gustatory sensory indexes such as bitter taste, astringent taste, sour taste, saline taste, fresh taste, sweet taste and raw material original taste of samples such as foods or drugs can be objectively and digitally evaluated, and meanwhile, a bitter aftertaste, an astringent aftertaste and a fresh aftertaste (abundance) can be further analyzed. Drawing is performed according to test data, and electronic tongue tasting test data graphs of the natural compound sweeteners in the embodiments 1-3 are separately shown in FIG. 1-FIG. 3.

C[C@H](CC[C@@H](O[C@@H]1O[C@H](CO[C@@H]2O[C@H](CO)[C@@H](O)[C@H](O)[C@H]2O)[C@@H](O)[C@H](O)[C@H]1O[C@@H]1O[C@H](CO)[C@@H](O)[C@H](O)[C@H]1O)C(C)(C)O)[C@H]1CC[C@@]2(C)[C@@H]3CC=C4[C@@H](CC[C@H](O[C@@H]5O[C@H](CO[C@@H]6O[C@H](CO)[C@@H](O)[C@H](O)[C@H]6O)[C@@H](O)[C@H](O)[C@H]5O)C4(C)C)[C@]3(C)[C@H](O)C[C@]12C [Mogroside V]
maximum sweetness relative to saccharose [1]: 420 times

C=C1C[C@@]23CC[C@H]4[C@@](C)(CCC[C@@]4(C)C(=O)O[C@@H]4O[C@H](CO)[C@@H](O)[C@H](O)[C@H]4O)[C@@H]2CC[C@]1(O[C@@H]1O[C@H](CO)[C@@H](O)[C@H](O[C@@H]2O[C@H](CO)[C@@H](O)[C@H](O)[C@H]2O)[C@H]1O[C@@H]1O[C@H](CO)[C@@H](O)[C@H](O)[C@H]1O)C3 [rebaudioside A]
electronic tongue taste profile [2]: partial to a herbal medicine taste, namely a raw-material original taste is very strong

rebaudioside C [Reb C]
sweetness relative to saccharose ([1]; from CN104144605A discussion): 300 times
